Results published in ChEMBL document CHEMBL3297740, “Thiazolidine-2,4-diones derivatives as PPAR-γ agonists: synthesis, molecular docking, in vitro and in vivo antidiabetic activity with hepatotoxicity risk evaluation and effect on PPAR-γ gene expression” (Bioorg Med Chem Lett, 2014).
Activity calls are given as the source filed them. The rule behind the calls is not given here.

How the values were obtained:
Rattus norvegicus [1] = test: Antidiabetic activity in streptozotocin-induced Albino Wistar rat diabetic model assessed as decrease in blood glucose level at 36 mg/kg, po measured after 15 days by glucose oxidase method; format: functional, organism-based; set-up: dose 36 mg/kg
Rattus norvegicus [2] = species: Rattus norvegicus; test: Reduction in streptozotocin-induced aspartate aminotransferase level in Albino Wistar rat diabetic model; format: functional, organism-based
Rattus norvegicus [3] = species: Rattus norvegicus; test: Hepatotoxicity in streptozotocin-induced in Albino Wistar rat diabetic model assessed as fatty changes in hepatocyte by Haematoxylin/Eosin staining-based microscopy; format: toxicity, organism-based; conditions: hepatocytes
Rattus norvegicus [4] = species: Rattus norvegicus; test: Hepatotoxicity in streptozotocin-induced in Albino Wistar rat diabetic model assessed as hepatocyte swelling by Haematoxylin/Eosin staining-based microscopy; format: toxicity, organism-based; conditions: hepatocytes
Rattus norvegicus [5] = species: Rattus norvegicus; test: Hepatotoxicity in streptozotocin-induced in Albino Wistar rat diabetic model assessed increase in portal triad Inflammation by Haematoxylin/Eosin staining-based microscopy; format: toxicity, organism-based; conditions: in vivo
Rattus norvegicus [6] = species: Rattus norvegicus; test: Reduction in streptozotocin-induced alkaline phosphatase level in Albino Wistar rat diabetic model; format: functional, organism-based
Rattus norvegicus [7] = species: Rattus norvegicus; test: Toxicity in streptozotocin-induced in Albino Wistar rat diabetic model assessed as liver damage by Haematoxylin/Eosin staining-based microscopy; format: organism-based; conditions: in vivo
Rattus norvegicus [8] = species: Rattus norvegicus; test: Reduction in streptozotocin-induced alanine transaminase level in Albino Wistar rat diabetic model; format: functional, organism-based
Rattus norvegicus [9] = species: Rattus norvegicus; test: Hepatotoxicity in streptozotocin-induced in Albino Wistar rat diabetic model assessed increase in sinusoidal dilatation by Haematoxylin/Eosin staining-based microscopy; format: toxicity, organism-based; conditions: in vivo
Rattus norvegicus [10] = species: Rattus norvegicus; test: Antidiabetic activity in Albino Wistar rat assessed as improvement in insulin resistance measured at 90 mins after insulin injection by insulin tolerance test; format: functional, organism-based
Rattus norvegicus [11] = test: Antidiabetic activity in streptozotocin-induced Albino Wistar rat diabetic model assessed as improvement in body weight at 36 mg/kg, po measured after 15 days by glucose oxidase method; format: functional, organism-based; set-up: dose 36 mg/kg
Rattus norvegicus [12] = species: Rattus norvegicus; test: Antidiabetic activity in Albino Wistar rat assessed as reduction of blood glucose level measured at 120 mins after glucose injection by oral glucose tolerance test; format: functional, organism-based
Rattus norvegicus [13] = species: Rattus norvegicus; test: Toxicity in Albino Wistar rat assessed as change in body weight relative to control; format: organism-based; conditions: in vivo

Activity (Rattus norvegicus [2]) | Activity (Rattus norvegicus [6]) | Activity (Rattus norvegicus [8]) | Structure (SMILES) | inhibition (Rattus norvegicus [1]) | Activity (Rattus norvegicus [3]) | Activity (Rattus norvegicus [4]) | Activity (Rattus norvegicus [5]) | Activity (Rattus norvegicus [7]) | Activity (Rattus norvegicus [9]) | other results
 |  |  | COc1ccc2c(c1)C(=O)C(CC1SC(=O)NC1=O)CO2 (stereo unspecified) | Active |  |  |  |  |  | 
Active | Active | Active | O=C1NC(=O)C(Cc2coc3ccc(Br)cc3c2=O)S1 (stereo unspecified) | Active | Non-toxic | Non-toxic | Non-toxic | Toxic | Toxic | 
 |  |  | O=C1NC(=O)C(Cc2coc3ccccc3c2=O)S1 (stereo unspecified) | Active |  |  |  |  |  | 
 |  |  | Cc1ccc2occ(CC3SC(=O)NC3=O)c(=O)c2c1 (stereo unspecified) | Active |  |  |  |  |  | 
 |  |  | Cc1ccc2c(c1)C(=O)C(CC1SC(=O)NC1=O)CO2 (stereo unspecified) | Active |  |  |  |  |  | 
Active | Active | Active | O=C1NC(=O)C(Cc2coc3c(Cl)cc(Cl)cc3c2=O)S1 (stereo unspecified) | Active | Non-toxic | Non-toxic | Non-toxic | Toxic | Toxic | 
 |  |  | COc1cccc2c1C(=O)C(CC1SC(=O)NC1=O)CO2 (stereo unspecified) | Active |  |  |  |  |  | 
 |  |  | O=C1NC(=O)C(CC2COc3c(Cl)cc(Cl)cc3C2=O)S1 (stereo unspecified) | Active |  |  |  |  |  | 
 |  |  | O=C1NC(=O)C(CC2COc3ccc(Br)cc3C2=O)S1 (stereo unspecified) | Active |  |  |  |  |  | 
Active | Active | Active | COc1ccc2occ(CC3SC(=O)NC3=O)c(=O)c2c1 (stereo unspecified) | Active | Non-toxic | Non-toxic | Non-toxic | Non-toxic | Non-toxic | 
Active | Active | Active | O=C1NC(=O)C(Cc2coc3ccc(F)cc3c2=O)S1 (stereo unspecified) | Active | Non-toxic | Non-toxic | Non-toxic | Toxic | Toxic | 
Active | Active | Active | O=C1NC(=O)C(Cc2coc3ccc(Cl)cc3c2=O)S1 (stereo unspecified) | Active | Non-toxic | Non-toxic | Non-toxic | Non-toxic | Non-toxic | Activity (Rattus norvegicus [10]): Active; Activity (Rattus norvegicus [11]): Active; inhibition (Rattus norvegicus [12]): Active; Activity (Rattus norvegicus [13]): Non-toxic
 |  |  | O=C1NC(=O)C(CC2COc3ccc(F)cc3C2=O)S1 (stereo unspecified) | Active |  |  |  |  |  | 
 |  |  | CCc1ccc(CCOc2ccc(CC3SC(=O)NC3=O)cc2)nc1 (stereo unspecified) [PIOGLITAZONE] |  | Non-toxic | Non-toxic | Non-toxic |  | Toxic | 
